Target: T1, FimH-CRD (Escherichia coli, UniProt P08191)
T1 construct: The first 177 amino acids of the FimH protein; thrombin tag (printed as 'fusion protein with thrombin') (cleaved yes); made in house; host or cells: bacteria (pET21b plasmid)
Assay: Competitive binding assay by fluorescence polarization, assay 1 (compounds prepared by manual serial dilution)
Method in brief: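 Fluorescence-polarization competition of 5 nM Alexa 647 mannoside probe with 60 nM FimH-CRD (first 177 residues, tag removed) in Tris-Cl pH 7.0, NaCl, EDTA, β-ME, BSA, 2.5% DMSO, 5 h at RT in the dark. Twelve-point 3-fold titrations (0.4 nM–75 μM) in duplicate; Kd interpolated from displacement curves.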

T1 sequence (P08191 22-177): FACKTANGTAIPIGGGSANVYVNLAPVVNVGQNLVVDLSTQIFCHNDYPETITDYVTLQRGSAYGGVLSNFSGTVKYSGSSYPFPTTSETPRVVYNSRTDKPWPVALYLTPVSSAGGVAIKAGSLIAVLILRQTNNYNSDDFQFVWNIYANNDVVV

Row | SMILES | Kd [nM] | IC50 [nM]
1 | Cc1nnc(-c2ccc(C#Cc3ccc([C@H]4O[C@H](CO)[C@@H](O)[C@H](O)[C@@H]4O)cc3)cc2)o1 [Compound 134, (2R,3S,4R,5S,6R)-2-(hydroxymethyl)-6-[4-[2-[4-(5-methyl-1,3,4-oxadiazol-2-yl)phenyl]ethynyl]phenyl]tetrahydropyran-3,4,5-triol] | 54.2 ± 17 | –
2 | OC[C@H]1O[C@H](c2cccc(/C=C\c3ccccc3)c2)[C@@H](O)[C@@H](O)[C@@H]1O [Compound 139, (2R,3S,4R,5S,6R)-2-(hydroxymethyl)-6-[3-[(Z)-styryl]phenyl]tetrahydropyran-3,4,5-triol] | < 5 | –
3 | CNC(=O)c1cccc(COc2ccc(C3O[C@H](CO)[C@@H](O)[C@H](O)[C@@H]3O)cc2)c1 (some centres unmarked) [Compound 248] | 14 ± 8.4 | –
4 | CNC(=O)c1ccc2nc(Oc3cccc([C@H]4O[C@H](CO)[C@@H](O)[C@H](O)[C@@H]4O)c3)sc2c1 [Compound 255, N-methyl-2-[3-[(2R,3S,4R,5S,6R)-3,4,5-trihydroxy-6-(hydroxymethyl)tetrahydropyran-2-yl]phenoxy]-1,3-benzothiazole-6-carboxamide] | 8.7 ± 2 | –
5 | OC[C@H]1O[C@H](O[C@@H]2[C@H](O)[C@@H](c3cccc(O)c3)O[C@H](CO)[C@H]2O)[C@@H](O)[C@@H](O)[C@@H]1O [Compound 265, (2R,3S,4S,5S,6R)-2-[(2R,3R,4R,5R,6R)-3,5-Dihydroxy-2-(hydroxymethyl)-6-(3-hydroxyphenyl)tetrahydropyran-4-yl]oxy-6-(hydroxymethyl)tetrahydropyran-3,4,5-triol] | 52.1 ± 13.8 | 162
6 | OC[C@H]1O[C@H](O[C@@H]2[C@H](O)[C@@H](c3ccc(O)cc3)O[C@H](CO)[C@H]2O)[C@@H](O)[C@@H](O)[C@@H]1O [Compound 266, (2R,3S,4S,5S,6R)-2-[(2R,3R,4R,5R,6R)-3,5-Dihydroxy-2-(hydroxymethyl)-6-(4-hydroxyphenyl)tetrahydropyran-4-yl]oxy-6-(hydroxymethyl)tetrahydropyran-3,4,5-triol] | 21.3 ± 6.2 | 59
7 | CNC(=O)c1ccc(Oc2cccc([C@H]3O[C@H](CO)[C@@H](O)[C@H](O[C@H]4O[C@H](CO)[C@@H](O)[C@H](O)[C@@H]4O)[C@@H]3O)c2)cc1 [Compound 267, 4-[3-[(2R,3R,4R,5R,6R)-3,5-Dihydroxy-6-(hydroxymethyl)-4-[(2R,3S,4S,5S,6R)-3,4,5-trihydroxy-6-(hydroxymethyl)tetrahydropyran-2-yl]oxy-tetrahydropyran-2-yl]phenoxy]-N-methyl-benzamide] | 12.8 ± 8 | 68
8 | CNC(=O)c1cccc(Oc2ccc([C@H]3O[C@H](CO)[C@@H](O)[C@H](O[C@H]4O[C@H](CO)[C@@H](O)[C@H](O)[C@@H]4O)[C@@H]3O)cc2)c1 [Compound 268, 3-[4-[(2R,3R,4R,5R,6R)-3,5-Dihydroxy-6-(hydroxymethyl)-4-[(2R,3S,4S,5S,6R)-3,4,5-trihydroxy-6-(hydroxymethyl)tetrahydropyran-2-yl]oxy-tetrahydropyran-2-yl]phenoxy]-N-methyl-benzamide] | 19 ± 3.8 | 77
9 | CNC(=O)c1cccc(Oc2cccc([C@H]3O[C@H](CO)[C@@H](O)[C@H](O[C@H]4O[C@H](CO)[C@@H](O)[C@H](O)[C@@H]4O)[C@@H]3O)c2)c1 [Compound 269, 3-[3-[(2R,3R,4R,5R,6R)-3,5-Dihydroxy-6-(hydroxymethyl)-4-[(2R,3S,4S,5S,6R)-3,4,5-trihydroxy-6-(hydroxymethyl)tetrahydropyran-2-yl]oxy-tetrahydropyran-2-yl]phenoxy]-N-methyl-benzamide] | < 5 | 10
10 | OC[C@H]1O[C@H](O[C@@H]2[C@H](O)[C@@H](c3cccc(Oc4ccc(F)cc4)c3)O[C@H](CO)[C@H]2O)[C@@H](O)[C@@H](O)[C@@H]1O [Compound 270, (2R,3S,4S,5S,6R)-2-[(2R,3R,4R,5R,6R)-2-[3-(4-Fluorophenoxy)phenyl]-3,5-dihydroxy-6-(hydroxymethyl)tetrahydropyran-4-yl]oxy-6-(hydroxymethyl)tetrahydropyran-3,4,5-triol] | 14.4 ± 2.6 | 54
11 | OC[C@H]1O[C@H](O[C@@H]2[C@H](O)[C@@H](c3cccc(Oc4ccccc4)c3)O[C@H](CO)[C@H]2O)[C@@H](O)[C@@H](O)[C@@H]1O [Compound 271, (2R,3S,4S,5S,6R)-2-[(2R,3R,4R,5R,6R)-3,5-Dihydroxy-2-(hydroxymethyl)-6-(3-phenoxyphenyl)tetrahydropyran-4-yl]oxy-6-(hydroxymethyl)tetrahydropyran-3,4,5-triol] | 14.7 ± 7 | 27
12 | Cc1nnc(-c2ccc(Oc3cccc([C@H]4O[C@H](CO)[C@@H](O)[C@H](O[C@H]5O[C@H](CO)[C@@H](O)[C@H](O)[C@@H]5O)[C@@H]4O)c3)cc2)o1 [Compound 272, (2R,3S,4S,5S,6R)-2-[(2R,3R,4R,5R,6R)-3,5-Dihydroxy-2-(hydroxymethyl)-6-[3-[4-(5-methyl-1,3,4-oxadiazol-2-yl)phenoxy]phenyl]tetrahydropyran-4-yl]oxy-6-(hydroxymethyl)tetrahydropyran-3,4,5-triol] | 12.7 ± 7.7 | 46
13 | Cc1cc(C)cc(Oc2cccc([C@H]3O[C@H](CO)[C@@H](O)[C@H](O[C@H]4O[C@H](CO)[C@@H](O)[C@H](O)[C@@H]4O)[C@@H]3O)c2)c1 [Compound 274, (2R,3S,4S,5S,6R)-2-[(2R,3R,4R,5R,6R)-2-[3-(3,5-Dimethylphenoxy)phenyl]-3,5-dihydroxy-6-(hydroxymethyl)tetrahydropyran-4-yl]oxy-6-(hydroxymethyl)tetrahydropyran-3,4,5-triol] | 43.1 ± 53 | 34
14 | CNC(=O)c1ccc(-c2cccc([C@H]3O[C@H](CO)[C@@H](O)[C@H](O[C@H]4O[C@H](CO)[C@@H](O)[C@H](O)[C@@H]4O)[C@@H]3O)c2)cc1 [Compound 275, 4-[3-[(2R,3R,4R,5R,6R)-3,5-Dihydroxy-6-(hydroxymethyl)-4-[(2R,3S,4S,5S,6R)-3,4,5-trihydroxy-6-(hydroxymethyl)tetrahydropyran-2-yl]oxy-tetrahydropyran-2-yl]phenyl]-N-methyl-benzamide] | 26.8 ± 15.4 | 28
15 | CS(=O)(=O)c1ccc(-c2cccc([C@H]3O[C@H](CO)[C@@H](O)[C@H](O[C@H]4O[C@H](CO)[C@@H](O)[C@H](O)[C@@H]4O)[C@@H]3O)c2)cc1 [Compound 276, (2R,3S,4S,5S,6R)-2-[(2R,3R,4R,5R,6R)-3,5-dihydroxy-2-(hydroxymethyl)-6-[3-(4-methylsulfonylphenyl)phenyl]tetrahydropyran-4-yl]oxy-6-(hydroxymethyl)tetrahydropyran-3,4,5-triol] | 11.1 ± 3.4 | 49
16 | CNC(=O)c1cc(C(=O)NC)cc(-c2cccc([C@H]3O[C@H](CO)[C@@H](O)[C@H](O[C@H]4O[C@H](CO)[C@@H](O)[C@H](O)[C@@H]4O)[C@@H]3O)c2)c1 [Compound 277, 5-[3-[(2R,3R,4R,5R,6R)-3,5-Dihydroxy-6-(hydroxymethyl)-4-[(2R,3S,4S,5S,6R)-3,4,5-trihydroxy-6-(hydroxymethyl)tetrahydropyran-2-yl]oxy-tetrahydropyran-2-yl]phenyl]-N1,N3-dimethyl-benzene-1,3-dicarboxamide] | 10.7 ± 3.9 | 47
17 | OC[C@H]1O[C@H](O[C@@H]2[C@H](O)[C@@H](c3cccc(C4CCCCC4)c3)O[C@H](CO)[C@H]2O)[C@@H](O)[C@@H](O)[C@@H]1O [Compound 278, (2R,3S,4S,5S,6R)-2-[(2R,3R,4R,5R,6R)-2-(3-Cyclohexylphenyl)-3,5-dihydroxy-6-(hydroxymethyl)tetrahydropyran-4-yl]oxy-6-(hydroxymethyl)tetrahydropyran-3,4,5-triol] | 12.7 ± 0.9 | 64
18 | OC[C@H]1O[C@H](O[C@@H]2[C@H](O)[C@@H](c3cccc(-c4cncnc4)c3)O[C@H](CO)[C@H]2O)[C@@H](O)[C@@H](O)[C@@H]1O [Compound 279, (2R,3S,4S,5S,6R)-2-[(2R,3R,4R,5R,6R)-3,5-Dihydroxy-2-(hydroxymethyl)-6-(3-pyrimidin-5-ylphenyl)tetrahydropyran-4-yl]oxy-6-(hydroxymethyl)tetrahydropyran-3,4,5-triol] | 9.9 ± 1.1 | 51
19 | Cn1cnc2ccc(-c3cccc([C@H]4O[C@H](CO)[C@@H](O)[C@H](O[C@H]5O[C@H](CO)[C@@H](O)[C@H](O)[C@@H]5O)[C@@H]4O)c3)cc21 [Compound 280, (2R,3S,4S,5S,6R)-2-[(2R,3R,4R,5R,6R)-3,5-Dihydroxy-2-(hydroxymethyl)-6-[3-(3-methylbenzimidazol-5-yl)phenyl]tetrahydropyran-4-yl]oxy-6-(hydroxymethyl)tetrahydropyran-3,4,5-triol (Trifluoroacetate Ion (1))] | 18.1 ± 7.1 | 59
20 | C=CC[C@H]1O[C@H](CO)[C@@H](O)[C@H](O[C@H]2O[C@H](CO)[C@@H](O)[C@H](O)[C@@H]2O)[C@@H]1O [Compound 281, (2R,3S,4S,5S,6R)-2-[(2R,3R,4R,5R,6R)-2-Allyl-3,5-dihydroxy-6-(hydroxymethyl)tetrahydropyran-4-yl]oxy-6-(hydro I amymethyl)tetrahydropyran-3,4,5-triol] | 51.1 ± 7.6 | 216
21 | OC[C@H]1O[C@H](O[C@H]2[C@H](O)[C@@H](CO)O[C@H](C/C=C/C3CCCCC3)[C@H]2O)[C@@H](O)[C@@H](O)[C@@H]1O [Compound 282, (2R,3S,4S,5S,6R)-2-[(2R,3R,4R,5R,6R)-2-[(E)-3-Cyclohexylallyl]-3,5-dihydroxy-6-(hydroxymethyl)tetrahydropyran-4-yl]oxy-6-(hydroxymethyl)tetrahydropyran-3,4,5-triol] | 40.6 ± 0.03 | 212

Reference: patent publication US20130261077A1 (priority 2012, published 2013)
